Source: US20250195536A1, “BICYCLOOCTANE KRAS INHIBITORS” (Incyte Corporation, priority 2023, published 2025)

Key:
KRAS G12D = KRAS G12D (Homo sapiens, UniProt P01116, G12D); experiment: GDP-GTP exchange assay (KRAS G12D); type: biochemical; conditions: bodipy-GDP/GppNHp exchange with SOS1; 4 h pre-incubation, 2 h reaction
Protocol: (§1) The inhibitor potency of the exemplified compounds was determined in a fluorescence based guanine nucleotide exchange assay, which measures the exchange of bodipy-GDP (fluorescently labeled GDP) for GppNHp (Non-hydrolyzable GTP analog) to generate the active state of KRAS in the presence of SOS1 (guanine nucleotide exchange factor). Inhibitors were serially diluted in DMSO and a volume of 0.1 μL was transferred to the wells of a black low volume 384-well plate. 5 μL/well volume of bodipy-loaded KRAS G12D diluted to 2.5 nM in assay buffer (25 mM Hepes pH 7.5, 50 mM NaCl, 10 mM MgCl2 and 0.01% Brij-35) was added to the plate and pre-incubated with inhibitor for 4 h at r.t. Appropriate controls (enzyme with no inhibitor or with a G12D inhibitor) were included on the plate. The exchange was initiated by the addition of a 5 μL/well volume containing 1 mM GppNHp and 300 nM SOS1 in assay buffer. The 10 μL/well reaction concentration of the bodipy-loaded KRAS G12D, GppNHp, and SOS1 were 2.5 nM, 500 μM, and 150 nM, respectively. The reaction plates were incubated at r.t. for 2 h, a time estimated for complete GDP-GTP exchange in the absence of inhibitor. For the KRAS G12V mutant, similar guanine nucleotide exchange assays were used with 2.5 nM as final concentration for the bodipy loaded KRAS proteins and 3 h incubation after adding GppNHp-SOS1 mixture. A cyclic peptide described to selectively bind G12D mutant (Sakamoto et al., BBRC 484.3 (2017), 605-611) or internal compounds with confirmed binding were used as positive controls in the assay plates. Fluorescence intensities were measured on a PheraStar plate reader instrument (BMG Labtech) with excitation at 485 nm and emission at 520 nm.
(§2) Either GraphPad prism or Genedata Screener SmartFit was used to analyze the data. The IC50 values were derived by fitting the data to a four parameter logistic equation producing a sigmoidal dose-response curve with a variable Hill coefficient.
(§3) The symbol “⬆” indicates IC50 100 nM, “⬆⬆” indicates IC50 >100 nM but ≤1 μM; and “⬆⬆⬆” indicates IC50 is >1 μM but ≤5 μM, “⬆⬆⬆⬆” indicates IC50 is >5 μM but ≤10 μM. “NA” indicates IC50 not available.

KRAS G12V = KRAS G12V (Homo sapiens, UniProt P01116, G12V); experiment: GDP-GTP exchange assay (KRAS G12V); type: biochemical; conditions: bodipy-GDP/GppNHp exchange with SOS1; 3 h incubation after GppNHp-SOS1
Protocol: as §1, §2, §3
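Further: one dagger IC50 up to 100 nM and two daggers above 100 nM up to 1 μM.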

KRAS G12V, sequence (P01116 1-188 isoform P01116-2 G12V): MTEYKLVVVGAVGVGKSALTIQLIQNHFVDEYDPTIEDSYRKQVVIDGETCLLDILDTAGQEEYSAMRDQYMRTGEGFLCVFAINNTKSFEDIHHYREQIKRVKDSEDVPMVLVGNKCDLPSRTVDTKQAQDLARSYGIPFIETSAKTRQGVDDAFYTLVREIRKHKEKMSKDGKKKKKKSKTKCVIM
KRAS G12D, sequence (P01116 1-188 isoform P01116-2 G12D): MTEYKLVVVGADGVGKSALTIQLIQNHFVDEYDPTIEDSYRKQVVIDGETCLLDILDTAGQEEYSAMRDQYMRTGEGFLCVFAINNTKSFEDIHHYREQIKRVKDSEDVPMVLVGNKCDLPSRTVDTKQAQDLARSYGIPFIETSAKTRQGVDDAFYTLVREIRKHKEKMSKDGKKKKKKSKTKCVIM

Row | Compound | G12D_exchange (KRAS_G12D exchange assay IC50) (KRAS G12D) | G12V_exchange (KRAS_G12V exchange assay IC50) (KRAS G12V)
1 | Cc1nc2c(F)c(-c3cccc(Cl)c3Cl)c(CCC#N)cc2c2c1cc([C@H]1[C@H]3C[C@H](CN(C(=O)NCC(F)(F)F)C3)N1C(=O)C1CC1)n2[C@H]1[C@H]2CN[C@@H]1C2 (atropisomer, axis not shown; (Ra)) [Example 109, (1 S,5R,7R)-7-((Ra)-1-((1R,4R,5S)-2-Azabicyclo[2.1.1]hexan-5-yl)-8-(2-cyanoethyl)-7-(2,3-dichlorophenyl)-6-fluoro-4-methyl-1H-pyrrolo[3,2-c]quinolin-2-yl)-6-(cyclopropanecarbonyl)-N-(2,2,2-trifluoroethyl)-3,6-diazabicyclo[3.2.1]octane-3-carboxamide] | † | †
2 | Cc1nc2c(F)c(-c3cccc(Cl)c3Cl)c(CCC#N)cc2c2c1cc([C@H]1[C@H]3C[C@H](CN(c4cnc5cccnc5c4)C3)N1C(=O)C1CC1)n2[C@H]1[C@H]2CN[C@@H]1C2 (atropisomer, axis not shown; (Ra)) [Example 6, 3-((Ra)-1-((1R,4R,5S)-2-azabicyclo[2.1.1]hexan-5-yl)-2-((1S,5R,7R)-6-(cyclopropanecarbonyl)-3-(1,5-naphthyridin-3-yl)-3,6-diazabicyclo[3.2.1]octan-7-yl)-7-(2,3-dichlorophenyl)-6-fluoro-4-methyl-1H-pyrrolo[3,2-c]quinolin-8-yl)propanenitrile] | † | †
3 | Cc1c(F)ccnc1N1C[C@@H]2C[C@H](C1)N(C(=O)C1CC1)[C@H]2c1cc2c(C)nc3c(F)c(-c4cccc(Cl)c4Cl)c(CCC#N)cc3c2n1[C@H]1[C@H]2CN[C@@H]1C2 (atropisomer, axis not shown; (Ra)) [Example 75, 3-((Ra)-1-((1R,4R,5S)-2-azabicyclo[2.1.1]hexan-5-yl)-2-((1S,5R,7R)-6-(cyclopropanecarbonyl)-3-(4-fluoro-3-methylpyridin-2-yl)-3,6-diazabicyclo[3.2.1]octan-7-yl)-7-(2,3-dichlorophenyl)-6-fluoro-4-methyl-1H-pyrrolo[3,2-c]quinolin-8-yl)propanenitrile] | †† | †
4 | Cc1nc2c(F)c(-c3cccc(Cl)c3Cl)c(CCC#N)cc2c2c1cc([C@H]1[C@H]3C[C@H](CN(c4ccnc(OCC5CC5)c4)C3)N1C(=O)C1CC1)n2[C@H]1[C@H]2CN[C@@H]1C2 (atropisomer, axis not shown; (Ra)) [Example 82, 3-((Ra)-1-((1R,4R,5S)-2-azabicyclo[2.1.1]hexan-5-yl)-2-((1S,5R,7R)-6-(cyclopropanecarbonyl)-3-(2-(cyclopropylmethoxy)pyridin-4-yl)-3,6-diazabicyclo[3.2.1]octan-7-yl)-7-(2,3-dichlorophenyl)-6-fluoro-4-methyl-1H-pyrrolo[3,2-c]quinolin-8-yl)propanenitrile] | † | †
5 | Cc1nc2c(F)c(-c3cccc(Cl)c3Cl)c(CCC#N)cc2c2c1cc([C@H]1[C@H]3C[C@H](CN(c4ccnc(C#N)c4)C3)N1C(=O)C1CC1)n2[C@H]1[C@H]2CN[C@@H]1C2 (atropisomer, axis not shown; (Ra)) [Example 63, 4-((1S,5R,7R)-7-((Ra)-1-((1R,4R,5S)-2-azabicyclo[2.1.1]hexan-5-yl)-8-(2-cyanoethyl)-7-(2,3-dichlorophenyl)-6-fluoro-4-methyl-1H-pyrrolo[3,2-c]quinolin-2-yl)-6-(cyclopropanecarbonyl)-3,6-diazabicyclo[3.2.1]octan-3-yl)picolinonitrile] | † | †
6 | Cc1nc2c(F)c(-c3cccc(Cl)c3Cl)c(CCC#N)cc2c2c1cc([C@H]1[C@H]3C[C@H](CN(c4ccncc4)C3)N1C(=O)C1CC1)n2[C@H]1[C@H]2CN[C@@H]1C2 (atropisomer, axis not shown; (Ra)) [Example 37, 3-((Ra)-1-((1R,4R,5S)-2-azabicyclo[2.1.1]hexan-5-yl)-2-((1S,5R,7R)-6-(cyclopropanecarbonyl)-3-(pyridin-4-yl)-3,6-diazabicyclo[3.2.1]octan-7-yl)-7-(2,3-dichlorophenyl)-6-fluoro-4-methyl-1H-pyrrolo[3,2-c]quinolin-8-yl)propanenitrile] | † | †
7 | COc1nccc(N2C[C@@H]3C[C@H](C2)N(C(=O)C2CC2)[C@H]3c2cc3c(C)nc4c(F)c(-c5cccc(Cl)c5Cl)c(CCC#N)cc4c3n2[C@H]2[C@H]3CN[C@@H]2C3)c1C (atropisomer, axis not shown; (Ra)) [Example 77, 3-((Ra)-1-((1R,4R,5S)-2-azabicyclo[2.1.1]hexan-5-yl)-2-((1S,5R,7R)-6-(cyclopropanecarbonyl)-3-(2-methoxy-3-methylpyridin-4-yl)-3,6-diazabicyclo[3.2.1]octan-7-yl)-7-(2,3-dichlorophenyl)-6-fluoro-4-methyl-1H-pyrrolo[3,2-c]quinolin-8-yl)propanenitrile] | †† | †
8 | Cc1nc2c(F)c(-c3cccc(Cl)c3Cl)c(CCC#N)cc2c2c1cc([C@H]1[C@H]3C[C@H](CN(c4ccccc4C(F)(F)F)C3)N1C(=O)C1CC1)n2[C@H]1[C@H]2CN[C@@H]1C2 (atropisomer, axis not shown; (Ra)) [Example 16, 3-((Ra)-1-((1R,4R,5S)-2-azabicyclo[2.1.1]hexan-5-yl)-2-((1S,5R,7R)-6-(cyclopropanecarbonyl)-3-(2-(trifluoromethyl)phenyl)-3,6-diazabicyclo[3.2.1]octan-7-yl)-7-(2,3-dichlorophenyl)-6-fluoro-4-methyl-1H-pyrrolo[3,2-c]quinolin-8-yl)propanenitrile] | ††† | †††
